Columns and labels:
[1] = Stability in aqueous solutions (impurity profile by HPLC-UV); assay type: physicochemical; conditions: PBS (pH 7.4) and SCF, room temperature, 48 and 72 hours
Experimental: The solubility and stability at room temperature of Example compound 1 and the free acid compound 5-chloro-4-hydroxy-1-methyl-2-oxo-N-phenyl-quinoline-3-carboxamide (described in Example 1a) above) was determined in PBS (pH 7.4) and in simulated colonic fluid (SCF) at ambient temperature. The SCF was the product FaSSCof obtained from Biorelevant.com prepared according to the manufacturer’s instructions. FaSSCof contains 0.15 mM sodium cholate, 0.3 mM Phospholipids, 0.1 mM Oleate, 120 mM sodium hydroxide, 45 mM TRIS and 76 mM maleate.
Saturated solutions were prepared in these solvents and the concentrations/impurity profile was determined by HPLC-UV using a calibration curve in the range of 1 to 150 µg/ml at 300 nm or 320 nm. Visual evaluation was also performed after every step over the testing period.
The samples were also analysed for the presence of impurities. After a period of 48 and 72 hours, all impurities were below the lower limit of quantitation.

[2] = molecular target: T1, aryl hydrocarbon receptor (AhR) (Mus musculus, UniProt P30561); assay: Activation of AhR in mice after oral administration, qPCR of CYP1A1; assay type: in vivo; conditions: for Colon CYP1A1 (fold change over untreated), Mean / Liver CYP1A1 (fold change over untreated), Mean: day 14, C57Bl/6 mice
T1 construct: evaluated in a wild-type (WT) mice; from tissue; host or cells: colon and liver of wild-type mice, in vivo after oral dosing
T1 sequence (P30561 10-848): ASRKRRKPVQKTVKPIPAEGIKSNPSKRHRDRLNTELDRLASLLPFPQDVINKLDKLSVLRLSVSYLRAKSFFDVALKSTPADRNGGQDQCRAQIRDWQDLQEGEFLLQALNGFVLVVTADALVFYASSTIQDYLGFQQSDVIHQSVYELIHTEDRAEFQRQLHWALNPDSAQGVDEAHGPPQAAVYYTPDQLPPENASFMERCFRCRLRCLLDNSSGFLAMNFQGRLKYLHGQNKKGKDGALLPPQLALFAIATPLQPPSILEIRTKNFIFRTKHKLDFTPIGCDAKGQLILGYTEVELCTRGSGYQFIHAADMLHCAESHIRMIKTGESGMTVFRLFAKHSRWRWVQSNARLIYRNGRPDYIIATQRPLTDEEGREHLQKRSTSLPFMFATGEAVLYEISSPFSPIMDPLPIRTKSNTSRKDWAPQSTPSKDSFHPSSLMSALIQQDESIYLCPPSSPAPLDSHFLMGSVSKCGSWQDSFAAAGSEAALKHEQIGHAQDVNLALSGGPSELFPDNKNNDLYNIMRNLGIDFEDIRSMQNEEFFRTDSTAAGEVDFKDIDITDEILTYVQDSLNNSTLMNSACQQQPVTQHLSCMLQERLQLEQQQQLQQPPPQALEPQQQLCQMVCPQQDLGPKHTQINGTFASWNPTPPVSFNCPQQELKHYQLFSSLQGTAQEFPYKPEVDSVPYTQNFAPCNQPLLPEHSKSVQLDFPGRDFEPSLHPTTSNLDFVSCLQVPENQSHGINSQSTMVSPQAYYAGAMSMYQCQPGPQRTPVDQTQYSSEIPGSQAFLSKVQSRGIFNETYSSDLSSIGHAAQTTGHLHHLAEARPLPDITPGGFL
Experimental: The potential of the 5-chloro-4-hydroxy-1-methyl-2-oxo-N-phenyl-quinoline-3-carboxamide potassium salt (Example compound 1) to activate the aryl hydrocarbon receptor (AhR) in the colon following oral administration was evaluated in a wild-type (WT) mice.
On study day 0, animals were weighed and evenly distributed into treatment groups based on body weight.
On study day 14, animals were asphyxiated via CO2 inhalation followed by cervical dislocation. The entire colon was removed, collected and prepared for qPCR analysis of CYP1A1 (Normalized to GAPDH & ACTB).
The Example compound 1 was formulated as a 0.1 mg/ml, 0.01 mg/ml or 0.001 mg/ml suspension with sodium carboxymethyl cellulose (1%, w/v).

Cn1c(=O)c(C(=O)Nc2ccccc2)c([O-])c2c(Cl)cccc21.[K+] [Example compound 1, 5-chloro-4-hydroxy-1-methyl-2-oxo-N-phenyl-quinoline-3-carboxamide potassium salt]
Stability in aqueous solution (impurities) [1]: stable in aqueous solution
Colon CYP1A1 (fold change over untreated), Mean ([2]; 0.01 mg/kg PO QD D0-13, colon): 1.03 fold change over untreated
Liver CYP1A1 (fold change over untreated), Mean ([2]; 0.01 mg/kg PO QD D0-13, liver): 1.08 fold change over untreated
Colon CYP1A1 (fold change over untreated), Mean ([2]; 0.1 mg/kg PO QD D0-13, colon): 7.42 fold change over untreated
Liver CYP1A1 (fold change over untreated), Mean ([2]; 0.1 mg/kg PO QD D0-13, liver): 2.81 fold change over untreated
Colon CYP1A1 (fold change over untreated), Mean ([2]; 1.0 mg/kg PO QD D0-13, colon): 8.34 fold change over untreated
Liver CYP1A1 (fold change over untreated), Mean ([2]; 1.0 mg/kg PO QD D0-13, liver): 3.44 fold change over untreated
CYP1A1 mRNA expression compared to untreated animals ([2]; 1.0 and 0.1 mg/kg oral, WT mice): significant increase

From patent US20230202982A1, “5-CHLORO-4-HYDROXY-1-METHYL-2-OXO-N-PHENYL-QUINOLINE-3-CARBOXAMIDE POTASSIUM SALT FOR TREATING INFLAMMATORY BOWEL DISEASES” (Aqilion AB, priority 2020, published 2023)
